Measurements as given in article PMC11154727, “Systematic Studies on the Anti-SARS-CoV-2 Mechanisms of Tea Polyphenol-Related Natural Products” (ACS Omega, 2024).
Where two headings read alike, the source gives them in different places.

What was measured:
RBD/ACE2 interaction [1] = molecular target: T1, RBD/ACE2 interaction (UniProt P0DTC2+Q9BYF1, L452R/T478K); assay: cell-based
RBD/ACE2 interaction [2] = molecular target: T1, RBD/ACE2 interaction; details: read-out: IC50 RBD/ACE2
[3] = system: UK B.1.1.7 N501Y Alpha SARS-CoV-2; format: cell-based; details: read-out: EC50 α strain
[4] = system: Brazil P.1 Gamma mutant SARS-CoV-2; format: cell-based; details: read-out: EC50 γ strain

Molecule: O=c1c(O)cc([C@H]2Oc3cc(O)cc(O)c3C[C@H]2O)cc2c([C@H]3Oc4cc(O)cc(O)c4C[C@H]3O)cc(O)c(O)c12 [theaflavin]
- IC50 (RBD/ACE2 interaction [1]): 12.3 ± 1.1 µM

Molecule: proanthocyanidin
- IC50 (RBD/ACE2 interaction [2]): 12.4 ± 1.1 µM

Molecule: O=C(O[C@@H]1Cc2c(O)cc(O)cc2O[C@@H]1c1cc(O)c(=O)c2c(O)c(O)cc([C@H]3Oc4cc(O)cc(O)c4C[C@H]3OC(=O)c3cc(O)c(O)c(O)c3)c2c1)c1cc(O)c(O)c(O)c1 [TF3, theaflavin-3,3′-digallate]
- EC50 [3]: 0.5 µM
- EC50 [4]: 0.4 ± 0.2 µM
